Measured values taken from patent US12070464B2, “Methods of treating myeloproliferative disorders” (priority 2019, dated 2024).
Where two headings read alike, the source gives them in different places.

Legend:
[1] = tested on: IL6 release from the THP-1 acute leukemia cells; assay: IL6 release from LPS-treated THP-1 cells; type: cell-based; details: Homo sapiens, lipopolysaccharide treatment, then Compound 1 for 16 hours
Method: Compound 1 was assessed for its ability to suppress the expression of NF-κB target genes in two experiments. In one experiment, THP-1 acute leukemia cell lines were exposed to lipopolysaccharide treatment and then Compound 1 for 16 hours. […] In the other experiment, the ability of Compound 1 to suppress both IL6 and ILIO expression in TMD8 ABC-DLBCL cells was investigated (data on file). TMD8 cells were incubated with DMSO or 1.6 μM Compound 1 for 6 or 24 hours. RNA was then extracted from the cells and quantified using qRT-PCR.

[2] = tested on: CD34+ cells isolated from the bone marrow of two healthy donors; assay: Megakaryocyte differentiation and proliferation, alone and with ruxolitinib, 10 days (FACS); type: cell-based; details: 240 h, 10 days
Source text: The cells were then harvested for FACS analysis with live/dead stain and gating with CD34 (progenitor marker) and CD41a and CD42b (mature megakaryocyte markers).

Compound: Cc1noc2c1-c1ccccc1C(c1ccc(Cl)cc1)=N[C@H]2CC(N)=O [Compound 1, 2-((4S)-6-(4-chlorophenyl)-1-methyl-4H-benzo[c]isoxazolo[4,5-e]azepin-4-yl)acetamide]
- IC50 [1]: 0.069 µM
- EC50 ([2]; Donor 1, percent of cells double positive for CD41a and CD42b, read-out: Megakaryocyte differentiation EC50): 0.06 µM
- EC50 ([2]; Donor 1, read-out: Megakaryocyte live count EC50): 0.026 µM
- EC50 ([2]; Donor 1, read-out: Total live count EC50): 0.043 µM
- EC50 ([2]; Donor 1, read-out: Viability EC50): 0.3 µM
- EC50 ([2]; Donor 2, percent of cells double positive for CD41a and CD42b, read-out: Megakaryocyte differentiation EC50): 0.131 µM
- EC50 ([2]; Donor 2, read-out: Megakaryocyte live count EC50): 0.029 µM
- EC50 ([2]; Donor 2, read-out: Total live count EC50): 0.032 µM
- EC50 ([2]; Donor 2, read-out: Viability EC50): > 0.5 µM
- EC50 ([2]; Mean of two donors, read-out: Megakaryocyte differentiation EC50): 0.096 µM
- EC50 ([2]; Mean of two donors, read-out: Megakaryocyte live count EC50): 0.028 µM
- EC50 ([2]; Mean of two donors, read-out: Total live count EC50 (overall cell proliferation)): 0.038 µM
- EC50 ([2]; Mean of two donors, read-out: Viability EC50): 0.4 µM
- EC50 ([2]; in the presence of 250 nM ruxolitinib, extrapolated, below the lowest dose tested, read-out: overall cell proliferation mean EC50 in the presence of ruxolitinib): 0.017 µM
